Data from paper PMC13054725 (2026).

Experiments:
[1] = tested on: Dopa-A (DA-A) (DNA, aptamer) GACGACTCCAGTTTGAAGGTTCGTTCGCAGGTGTGGAGTGAAGTCGTC; assay: ITC; details: PBS 1x, 2 mM Mg2+; 1x PBS, 2 mM MgCl2, 25 °C; one-site fit
[2] = tested on: Dopa-A′ (DNA, aptamer) CGACGCCAGTTTGAAGGTTCGTTCGCAGGTGTGGAGTGACGTCG; assay: ITC; details: PBS 1x, 2 mM Mg2+; 1x PBS, 2 mM MgCl2, 25 °C; one-site fit

NCCc1ccc(O)c(O)c1
Kd [1]: 2.7 µM
Kd [2]: 3.5 µM
